Columns and labels:
Experiment in all cases: Test D controlled growth environment herbicide test, pre- and postemergence
Format in all cases: in vivo
[1] = system: barley, winter (winter barley, Hordeum vulgare)
Outline: (§1)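 Rating is visual, 0–100 scale (100 = complete control), made against untreated plants 14–21 d after treatment in controlled growth conditions. Postemergence sprays went onto 1- to 4-leaf plants in peat medium; preemergence sprays onto silt loam after sowing; formulation included a surfactant.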

[2] = system: ryegrass, Italian (Italian ryegrass, Lolium multiflorum)
Outline: as §1

[3] = system: speedwell (bird's-eye speedwell, Veronica persica)
Outline: as §1

[4] = system: lambsquarters (Chenopodium album)
Outline: as §1

[5] = system: galium (catchweed bedstraw, Galium aparine)
Outline: as §1

[6] = system: buckwheat, wild (wild buckwheat, Polygonum convolvulus)
Outline: as §1

[7] = system: chickweed (common chickweed, Stellaria media)
Outline: as §1

[8] = system: field poppy (Papaver rhoeas)
Outline: as §1

[9] = system: oilseed rape (Brassica napus)
Outline: as §1

[10] = system: canarygrass (Phalaris minor)
Outline: as §1

[11] = system: blackgrass (Alopecurus myosuroides)
Outline: as §1

[12] = system: bromegrass, downy (downy bromegrass, Bromus tectorum)
Outline: as §1

[13] = system: chamomile (scentless chamomile, Matricaria inodora)
Outline: as §1

[14] = Postemergence, 31 g ai/ha, scale 0 to 100 (0 no effect, 100 complete control)
[15] = Postemergence, 125 g ai/ha, visual rating on scale 0 (no effect) to 100 (complete control), 14 to 21 d
[16] = Postemergence, 250 g ai/ha, scale 0 to 100 (0 no effect, 100 complete control)
[17] = Preemergence, 62 g ai/ha, scale 0 to 100 (0 no effect, 100 complete control)
[18] = Preemergence, 125 g ai/ha, scale 0 to 100 (0 no effect, 100 complete control)
[19] = Preemergence, 250 g ai/ha, scale 0 to 100 (0 no effect, 100 complete control)
[20] = postemergence, 62 g ai/ha, scale 0 to 100, 0 no effect, 100 complete control

In the case of COC(=O)Oc1c(C)nn(C)c(=O)c1-c1c(C)sc2c(C)cc(C)cc12 [Compound 81], the “Barley, Winter plant response rating” value [1, 14] is reported as 0, the “Plant response rating, Barley, Winter” value [1, 15] is reported as 0 and the “Plant response rating, Barley, Winter” value [1, 16] is reported as 10. The “Plant response rating (scale of 0 to 100), Barley, Winter” value ([1]; Preemergence, 31 g ai/ha) was 0, the “Plant response rating, Barley, Winter” value [1, 17] was 0 and the “Plant response rating, Barley, Winter” value [1, 18] was 45. For the same compound, the “Plant response rating, Barley, Winter” value [1, 19] was 45, the “Plant response rating, Barley, Winter” value [1, 20] was 0 and the “Ryegrass, Italian plant response rating” value [2, 14] was 85. For the same compound, the “Plant response rating, Ryegrass, Italian” value [2, 15] was 95, the “Plant response rating, Ryegrass, Italian” value [2, 16] was 95 and the “Plant response rating (scale of 0 to 100), Ryegrass, Italian” value ([2]; Preemergence, 31 g ai/ha) was 55. The “Plant response rating, Ryegrass, Italian” value [2, 17] was 65, the “Plant response rating, Ryegrass, Italian” value [2, 18] was 85 and the “Plant response rating, Ryegrass, Italian” value [2, 19] was 100. For the same compound, the “Plant response rating, Ryegrass, Italian” value [2, 20] was 90, the “Speedwell plant response rating” value [3, 14] was 75 and the “Plant response rating, Speedwell” value [3, 15] was 95. The “Plant response rating, Speedwell” value [3, 16] was 100, the “Plant response rating (scale of 0 to 100), Speedwell” value ([3]; Preemergence, 31 g ai/ha) was 55 and the “Plant response rating, Speedwell” value [3, 17] was 60. For the same compound, the “Plant response rating, Speedwell” value [3, 18] was 100, the “Plant response rating, Speedwell” value [3, 19] was 100 and the “Plant response rating, Speedwell” value [3, 20] was 80. For the same compound, the “Lambsquarters plant response rating” value [4, 14] was 95, the “Plant response rating, Lambsquarters” value [4, 15] was 100 and the “Plant response rating, Lambsquarters” value [4, 16] was 100. For the same compound, the “Plant response rating (scale of 0 to 100), Lambsquarters” value ([4]; Preemergence, 31 g ai/ha) was 55, the “Plant response rating, Lambsquarters” value [4, 17] was 95 and the “Plant response rating, Lambsquarters” value [4, 18] was 70. The “Plant response rating, Lambsquarters” value [4, 19] was 95, the “Plant response rating, Lambsquarters” value [4, 20] was 100 and the “Galium plant response rating” value [5, 14] was 100. The “Plant response rating, Galium” value [5, 15] was 100, the “Plant response rating, Galium” value [5, 16] was 100 and the “Plant response rating (scale of 0 to 100), Galium” value ([5]; Preemergence, 31 g ai/ha) was 25. For the same compound, the “Plant response rating, Galium” value [5, 17] was 65, the “Plant response rating, Galium” value [5, 18] was 85 and the “Plant response rating, Galium” value [5, 19] was 95. For the same compound, the “Plant response rating, Galium” value [5, 20] was 100, the “Buckwheat, Wild plant response rating” value [6, 14] was 100 and the “Plant response rating, Buckwheat, Wild” value [6, 15] was 100. The “Plant response rating, Buckwheat, Wild” value [6, 16] was 100, the “Plant response rating (scale of 0 to 100), Buckwheat, Wild” value ([6]; Preemergence, 31 g ai/ha) was 15 and the “Plant response rating, Buckwheat, Wild” value [6, 17] was 15. For the same compound, the “Plant response rating, Buckwheat, Wild” value [6, 18] was 0, the “Plant response rating, Buckwheat, Wild” value [6, 19] was 15 and the “Plant response rating, Buckwheat, Wild” value [6, 20] was 100. For the same compound, the “Chickweed plant response rating” value [7, 14] was 100, the “Plant response rating, Chickweed” value [7, 15] was 100 and the “Plant response rating, Chickweed” value [7, 16] was 100. For the same compound, the “Plant response rating (scale of 0 to 100), Chickweed” value ([7]; Preemergence, 31 g ai/ha) was 95, the “Plant response rating, Chickweed” value [7, 17] was 100 and the “Plant response rating, Chickweed” value [7, 18] was 100. For the same compound, the “Plant response rating, Chickweed” value [7, 19] was 100, the “Plant response rating, Chickweed” value [7, 20] was 100 and the “Field Poppy plant response rating” value [8, 14] was 100. For the same compound, the “Plant response rating, Field Poppy” value [8, 15] was 100, the “Plant response rating, Field Poppy” value [8, 16] was 100 and the “Plant response rating (scale of 0 to 100), Field Poppy” value ([8]; Preemergence, 31 g ai/ha) was 100. For the same compound, the “Plant response rating, Field Poppy” value [8, 17] was 100, the “Plant response rating, Field Poppy” value [8, 18] was 100 and the “Plant response rating, Field Poppy” value [8, 19] was 100. For the same compound, the “Plant response rating, Field Poppy” value [8, 20] was 100, the “Oilseed Rape plant response rating” value [9, 14] was 70 and the “Plant response rating, Oilseed Rape” value [9, 15] was 75. For the same compound, the “Plant response rating, Oilseed Rape” value [9, 16] was 85, the “Plant response rating (scale of 0 to 100), Oilseed Rape” value ([9]; Preemergence, 31 g ai/ha) was 0 and the “Plant response rating, Oilseed Rape” value [9, 17] was 0. The “Plant response rating, Oilseed Rape” value [9, 18] was 50, the “Plant response rating, Oilseed Rape” value [9, 19] was 100 and the “Plant response rating, Oilseed Rape” value [9, 20] was 70. The “Canarygrass plant response rating” value [10, 14] was 75, the “Plant response rating, Canarygrass” value [10, 15] was 95 and the “Plant response rating, Canarygrass” value [10, 16] was 100. The “Plant response rating (scale of 0 to 100), Canarygrass” value ([10]; Preemergence, 31 g ai/ha) was 75, the “Plant response rating, Canarygrass” value [10, 17] was 65 and the “Plant response rating, Canarygrass” value [10, 18] was 95. For the same compound, the “Plant response rating, Canarygrass” value [10, 19] was 100, the “Plant response rating, Canarygrass” value [10, 20] was 85 and the “Blackgrass plant response rating” value [11, 14] was 65. For the same compound, the “Plant response rating, Blackgrass” value [11, 15] was 80, the “Plant response rating, Blackgrass” value [11, 16] was 85 and the “Plant response rating (scale of 0 to 100), Blackgrass” value ([11]; Preemergence, 31 g ai/ha) was 55. The “Plant response rating, Blackgrass” value [11, 17] was 60, the “Plant response rating, Blackgrass” value [11, 18] was 70 and the “Plant response rating, Blackgrass” value [11, 19] was 85. For the same compound, the “Plant response rating, Blackgrass” value [11, 20] was 75, the “Bromegrass, Downy plant response rating” value [12, 14] was 15 and the “Plant response rating, Bromegrass, Downy” value [12, 15] was 65. For the same compound, the “Plant response rating, Bromegrass, Downy” value [12, 16] was 75, the “Plant response rating (scale of 0 to 100), Bromegrass, Downy” value ([12]; Preemergence, 31 g ai/ha) was 20 and the “Plant response rating, Bromegrass, Downy” value [12, 17] was 45. For the same compound, the “Plant response rating, Bromegrass, Downy” value [12, 18] was 15, the “Plant response rating, Bromegrass, Downy” value [12, 19] was 75 and the “Plant response rating, Bromegrass, Downy” value [12, 20] was 35. The “Chamomile plant response rating” value [13, 14] was 100, the “Plant response rating, Chamomile” value [13, 15] was 100 and the “Plant response rating, Chamomile” value [13, 16] was 100. For the same compound, the “Plant response rating, Chamomile” value [13, 20] was 100.

Reference: patent US10597388B2, “Pyridazinone herbicides” (FMC CORPORATION, priority 2014, dated 2020)
